Reference: paper PMC9655899, “Inhibition of Netosis with PAD Inhibitor Attenuates Endotoxin Shock Induced Systemic Inflammation” (International Journal of Molecular Sciences, 2022)

How the values were obtained:
Assay type in all cases: biochemical
human PAD4 = biological target: T1, human PAD4 (Homo sapiens, UniProt Q9UM07); experiment: BAEE citrullination colorimetric assay (diacetyl monoxime, A465) with purchased enzyme, […] min preincubation
T1 construct: gene PADI4

mouse PAD4 = biological target: T2, mouse PAD4 (Mus musculus, UniProt Q9Z183); experiment: as above
T2 construct: gene Padi4

PAD1 = biological target: T3, PAD1 (Homo sapiens, UniProt Q9ULC6); experiment: PAD enzyme activity assay with purchased human PAD1 (BAEE colorimetric assay described for PAD4)
T3 construct: gene PADI1
T3 sequence (Q9ULC6 1-663): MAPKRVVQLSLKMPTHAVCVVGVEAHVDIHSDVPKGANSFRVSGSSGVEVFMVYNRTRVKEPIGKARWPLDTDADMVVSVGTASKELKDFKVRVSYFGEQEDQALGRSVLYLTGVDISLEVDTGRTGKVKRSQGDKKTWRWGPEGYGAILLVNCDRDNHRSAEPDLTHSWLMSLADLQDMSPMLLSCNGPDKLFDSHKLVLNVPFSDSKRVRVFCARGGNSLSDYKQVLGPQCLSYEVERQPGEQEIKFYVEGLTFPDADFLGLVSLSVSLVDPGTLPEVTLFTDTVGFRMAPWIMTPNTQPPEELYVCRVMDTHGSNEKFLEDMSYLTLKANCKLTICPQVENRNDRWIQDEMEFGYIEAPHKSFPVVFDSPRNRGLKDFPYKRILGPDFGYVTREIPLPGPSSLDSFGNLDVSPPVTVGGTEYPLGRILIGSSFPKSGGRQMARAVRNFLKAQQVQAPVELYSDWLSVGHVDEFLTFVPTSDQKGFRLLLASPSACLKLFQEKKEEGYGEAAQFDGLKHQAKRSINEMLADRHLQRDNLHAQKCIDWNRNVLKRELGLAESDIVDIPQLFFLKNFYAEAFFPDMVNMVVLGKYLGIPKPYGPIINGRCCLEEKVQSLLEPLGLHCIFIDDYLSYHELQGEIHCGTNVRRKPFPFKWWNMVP

PAD3 = biological target: T4, PAD3 (Homo sapiens, UniProt Q9ULW8); experiment: PAD enzyme activity assay with purchased human PAD3 (BAEE colorimetric assay described for PAD4)
T4 construct: gene PADI3
T4 sequence (Q9ULW8 1-664): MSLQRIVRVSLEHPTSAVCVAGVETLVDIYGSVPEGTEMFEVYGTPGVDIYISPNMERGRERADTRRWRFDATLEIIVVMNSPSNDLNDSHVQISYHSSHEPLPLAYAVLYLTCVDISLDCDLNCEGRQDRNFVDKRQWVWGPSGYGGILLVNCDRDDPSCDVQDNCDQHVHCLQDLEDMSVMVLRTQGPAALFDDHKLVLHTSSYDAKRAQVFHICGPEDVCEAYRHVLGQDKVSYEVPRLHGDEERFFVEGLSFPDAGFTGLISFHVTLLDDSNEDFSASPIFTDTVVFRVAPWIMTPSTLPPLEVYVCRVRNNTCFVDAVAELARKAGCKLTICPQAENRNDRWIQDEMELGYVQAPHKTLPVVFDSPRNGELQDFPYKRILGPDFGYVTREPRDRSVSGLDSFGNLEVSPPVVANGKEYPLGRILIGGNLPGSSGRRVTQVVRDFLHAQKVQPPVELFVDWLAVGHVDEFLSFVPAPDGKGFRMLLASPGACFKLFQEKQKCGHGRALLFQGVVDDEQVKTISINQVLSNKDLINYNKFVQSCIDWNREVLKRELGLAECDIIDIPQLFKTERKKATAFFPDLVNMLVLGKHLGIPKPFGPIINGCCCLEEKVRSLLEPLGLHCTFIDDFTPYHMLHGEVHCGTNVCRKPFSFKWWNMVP

PAD2 = biological target: T5, PAD2 (Homo sapiens, UniProt Q9Y2J8); experiment: PAD enzyme activity assay with purchased human PAD2 (BAEE colorimetric assay described for PAD4)
T5 construct: gene PADI2
T5 sequence (Q9Y2J8 whole entry): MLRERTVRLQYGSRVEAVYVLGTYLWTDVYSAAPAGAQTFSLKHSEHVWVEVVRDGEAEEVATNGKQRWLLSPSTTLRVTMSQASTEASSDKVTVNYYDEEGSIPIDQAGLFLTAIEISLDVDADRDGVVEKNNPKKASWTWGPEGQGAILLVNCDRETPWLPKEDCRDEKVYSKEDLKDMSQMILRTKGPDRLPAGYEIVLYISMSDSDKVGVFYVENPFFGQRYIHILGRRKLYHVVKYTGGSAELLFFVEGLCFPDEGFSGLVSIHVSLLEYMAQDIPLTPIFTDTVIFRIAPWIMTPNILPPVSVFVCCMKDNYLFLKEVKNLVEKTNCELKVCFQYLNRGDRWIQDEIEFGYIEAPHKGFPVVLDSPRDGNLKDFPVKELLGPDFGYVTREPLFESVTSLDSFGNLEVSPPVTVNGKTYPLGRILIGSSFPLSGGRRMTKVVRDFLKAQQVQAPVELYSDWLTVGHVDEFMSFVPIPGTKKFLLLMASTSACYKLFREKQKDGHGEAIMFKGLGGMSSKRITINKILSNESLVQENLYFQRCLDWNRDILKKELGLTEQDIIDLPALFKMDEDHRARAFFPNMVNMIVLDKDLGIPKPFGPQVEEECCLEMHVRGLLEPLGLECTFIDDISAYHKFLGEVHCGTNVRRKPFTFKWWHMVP

T2 sequence (Q9Z183 whole entry): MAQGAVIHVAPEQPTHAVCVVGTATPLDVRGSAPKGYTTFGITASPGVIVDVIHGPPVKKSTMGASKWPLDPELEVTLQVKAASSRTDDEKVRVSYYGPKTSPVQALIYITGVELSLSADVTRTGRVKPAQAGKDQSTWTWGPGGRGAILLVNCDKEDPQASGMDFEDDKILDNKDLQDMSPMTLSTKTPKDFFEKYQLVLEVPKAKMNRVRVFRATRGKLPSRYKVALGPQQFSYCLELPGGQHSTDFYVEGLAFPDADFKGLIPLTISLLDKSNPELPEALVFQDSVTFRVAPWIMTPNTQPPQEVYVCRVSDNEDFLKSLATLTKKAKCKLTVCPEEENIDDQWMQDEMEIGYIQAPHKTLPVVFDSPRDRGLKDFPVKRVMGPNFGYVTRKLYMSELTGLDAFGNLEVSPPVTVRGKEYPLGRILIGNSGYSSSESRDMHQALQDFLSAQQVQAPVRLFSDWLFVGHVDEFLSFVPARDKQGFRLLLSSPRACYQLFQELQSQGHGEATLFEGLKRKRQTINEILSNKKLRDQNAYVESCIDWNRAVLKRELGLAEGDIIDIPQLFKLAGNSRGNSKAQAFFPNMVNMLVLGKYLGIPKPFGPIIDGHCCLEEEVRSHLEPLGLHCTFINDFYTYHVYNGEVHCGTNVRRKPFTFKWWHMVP
T1 sequence (Q9UM07 whole entry): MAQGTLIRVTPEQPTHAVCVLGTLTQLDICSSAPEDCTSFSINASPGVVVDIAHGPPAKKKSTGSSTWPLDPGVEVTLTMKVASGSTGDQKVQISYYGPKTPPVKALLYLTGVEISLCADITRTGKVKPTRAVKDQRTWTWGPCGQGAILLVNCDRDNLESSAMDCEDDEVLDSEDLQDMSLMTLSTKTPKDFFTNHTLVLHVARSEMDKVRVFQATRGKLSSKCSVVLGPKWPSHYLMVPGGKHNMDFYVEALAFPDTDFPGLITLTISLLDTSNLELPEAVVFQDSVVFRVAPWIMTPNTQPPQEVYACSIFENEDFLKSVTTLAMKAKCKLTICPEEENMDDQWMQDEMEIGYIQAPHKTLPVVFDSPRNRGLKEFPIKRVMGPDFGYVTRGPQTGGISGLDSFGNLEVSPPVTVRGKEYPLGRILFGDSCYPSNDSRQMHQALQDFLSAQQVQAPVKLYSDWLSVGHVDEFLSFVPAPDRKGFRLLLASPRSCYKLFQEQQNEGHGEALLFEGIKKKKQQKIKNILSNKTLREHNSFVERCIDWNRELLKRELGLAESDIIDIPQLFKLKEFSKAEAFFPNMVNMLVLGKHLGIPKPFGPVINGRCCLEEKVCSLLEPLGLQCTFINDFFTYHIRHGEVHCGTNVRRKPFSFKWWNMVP

With `CN(C)c1ccc2cc(C(=O)N[C@@H](CCCNC(=N)CCl)C(=O)NCc3ccccc3)ccc2c1` [YW3-56] the IC50 (human PAD4) was 1.19 µM, the IC50 (mouse PAD4) was 2.54 µM and the IC50 (PAD1) was 1.45 µM. For the same compound, the IC50 (PAD3) was 53.4 µM and the IC50 (PAD2) was 6.34 µM.
